Here are results for 13 compounds from PubChem BioAssay (NCI).

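Five compound concentrations were applied to cells in 96-well plates for 48 hours; endpoints were derived by simple linear interpolation of the resulting dose-response curve. GI50 is the concentration that inhibits growth by half. The concentration for full growth arrest is given as TGI.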

Common to all, as to experiment: DTP human tumour cell line panel, 48 h
In assay [1] the test system is SW-620 colon.
For assay [2], the system named is SN12C renal.
Assay [3] has as its system NCI-H226 lung.
The test system of assay [4] is MALME-3M melanoma.
For assay [5], the system named is HOP-62 NSCLC.
The test system of assay [6] is A498 renal.
Assay [7] has as its system EKVX NSCLC.
Assay [8] has as its system DU-145 prostate.
The subject of assay [9] is RXF 393 renal.
The subject of assay [10] is OVCAR-3 ovarian.

One may read the TGI as the concentration at which net growth stops. In the case of `O=c1cc(N2CCOCC2)[nH]c(=O)n1-c1ccc(F)cc1`, the total growth inhibition concentration (TGI) in assay [1], in [2], in [3], in assay [4], in [5] and in assay [6] was more than 100 µM each time. For the same compound, the TGI in assay [7], in assay [8], in [9] and in assay [10] was more than 100 µM throughout.
For the compound `Oc1c(C2=NNC(c3ccc(Cl)cc3Cl)C2)ccc2ccccc12` (stereo unspecified), the TGI in assay [1], in assay [2], in assay [3], in assay [4], in assay [5] and in assay [6] was more than 100 µM throughout. For the same compound, the total growth inhibition concentration (TGI) in [8], in assay [9] and in assay [10] was more than 100 µM each time.
As for `O=C(NCC(=O)N1CCCC1C(=O)OC(=O)C1CCCN1C(=O)CNC(=O)OCc1ccccc1)OCc1ccccc1` (stereo unspecified), the TGI in assay [1] is more than 100 µM; in [2], more than 100 µM; in [3], 66.2 µM; in [4] it was 64.8 µM; in assay [5], 77 µM; in [6], more than 100 µM. For the same compound, the TGI in [7] is more than 100 µM; in assay [8] it was more than 100 µM; in assay [9] it was 64.5 µM; in assay [10] it was more than 100 µM.
With `CC(C)(Br)C(Br)CCC1(C2CO2)CO1` (stereo unspecified), the total growth inhibition concentration (TGI) in assay [1], in [2], in assay [3], in assay [4], in assay [5] and in assay [6] was more than 5 µM in each case. Moreover, the TGI in assay [7], in assay [8], in [9] and in assay [10] was more than 5 µM in each case.
What is called GI50 is the concentration that inhibits growth by half. Regarding `CN(C)CCCNC(=O)c1cc2[nH]c3c(cnc4ccc([N+](=O)[O-])cc43)c(=O)c2n1C`, the GI50 in assay [1] is 17.4 µM; in assay [2] it was 20.8 µM; in assay [3] it was 49.8 µM; in assay [4], 21.3 µM; in assay [5] it was 17.2 µM; in assay [6] it was 55.1 µM. In addition, the GI50 in assay [7] was 23.5 µM; in assay [8], 12.6 µM; in assay [9], 4.88 µM; in assay [10], 19.4 µM. Moreover, the TGI in [1] is 34.5 µM; in assay [2] it was 35.4 µM; in [3], more than 100 µM; in [4] it was 40.4 µM; in [5] it was 30.9 µM; in assay [6], more than 100 µM. The total growth inhibition concentration (TGI) in assay [7] turned out to be 52.3 µM; in assay [8], 25.1 µM; in [9], 18.7 µM; in [10] it was 45.9 µM.
As for `CCCn1c2ccccc2c2ccc3c(c21)C(=O)C=CC3=O`, the total growth inhibition concentration (TGI) in assay [1] was 3.27 µM; in assay [2] it was more than 7.53 µM; in assay [3] it was more than 10 µM; in assay [4], 4.02 µM; in assay [5], more than 10 µM; in assay [6], more than 10 µM. Besides, the TGI in assay [7] was more than 7.95 µM; in assay [8], more than 10 µM; in assay [9] it was 3.87 µM; in [10], 4.88 µM.
Regarding `Cc1cc(C)n(C(=C(C(Cl)=C(Cl)Cl)[N+](=O)[O-])n2nc(C)cc2C)n1`, the TGI was 18.2 µM in assay [1]; 15.9 µM in [2]; 26 µM in assay [3]; 7.86 µM in assay [4]; 19.5 µM in assay [5]; 8.59 µM in [6]. The TGI in assay [7] is 6.27 µM; in [8], 14.9 µM; in [9], 16 µM; in [10], 10.4 µM.
On to `NS(=O)(=O)c1ccc(N=Nc2nc3[nH]c(=O)[nH]c(=O)c3[nH]2)cc1`, for which the TGI in assay [1], in assay [2], in assay [3], in assay [4], in [5] and in assay [6] was more than 100 µM throughout. The concentration for total growth inhibition (TGI) in assay [7], in [8], in assay [9] and in [10] was more than 100 µM in each case.
`CC1(C)CC(=O)c2[nH]c3ccccc3c2CC(=O)NCCc2cn1cn2`: the TGI in assay [1], in [2], in assay [3], in [4], in [6] and in [7] was more than 100 µM each time. Moreover, the TGI in assay [8], in [9] and in assay [10] was more than 100 µM throughout.
For `CC(=O)Nc1ccc(C(=O)NN2C(=O)CSC2c2ccc([N+](=O)[O-])cc2)cc1` (stereo unspecified), the TGI in assay [1], in assay [2], in assay [3], in [5], in assay [6] and in [7] was more than 100 µM each time. Besides, the total growth inhibition concentration (TGI) in assay [8], in [9] and in [10] was more than 100 µM throughout.
As to `O=C1C2CC=CCC2C(=O)N1n1c(Cc2ccc(Cl)cc2)n[nH]c1=O` (stereo unspecified), the TGI in [1], in assay [2], in [3], in assay [4], in [5] and in [6] was more than 100 µM throughout. Besides, the total growth inhibition concentration (TGI) in [7], in [8], in assay [9] and in assay [10] was more than 100 µM in each case.
On to `Nc1ccc(-c2nc3cc(F)ccc3s2)cc1Cl`, for which the TGI in assay [1] is more than 100 µM; in [2], more than 71.8 µM; in [3] it was 5.04 µM; in assay [4], 67.8 µM; in assay [5] it was 46.8 µM; in assay [6], more than 39.3 µM. Also, the total growth inhibition concentration (TGI) in assay [7] is more than 48.2 µM; in assay [8] it was more than 100 µM; in assay [9], more than 100 µM; in [10] it was 45.6 µM.
Turning to `Cc1c([N+](=O)[O-])ccc2c(NCCCN(C)C)ccnc12`, the TGI is 55.6 µM in assay [1]; more than 100 µM in assay [2]; 72.5 µM in [3]; 31.7 µM in assay [4]; more than 100 µM in [5]; 82.7 µM in [6]. Further, the total growth inhibition concentration (TGI) in [8] is more than 100 µM; in [9] it was 60.8 µM; in [10], 50.8 µM.
